According to PMC11969024, “Development of chemokine network inhibitors using combinatorial saturation mutagenesis” (Communications Biology, 2025):

Tested on: THP1 cells, activated T-cells (ATC), J:CXCR1 cells
Test: Meta-analysis of individual chemokine-induced cell migration experiments
Format: cell-based, human
Conditions: seven CC and three CXC chemokines, Dunnett's test
Experimental: Cell migration assays were performed as follows. THP1 cell migration. Briefly, 300000 cells/well were added to the top chamber of a 5-µm 96-well Transwell insert (3387, Corning) in 50 µL of cell migration media (RPMI-1640 (R0883, Sigma), 0.5% FBS (F9665, Sigma), 4mM L-Glutamine (G7513, Sigma), 0.05% DMSO (D4540, Sigma)). The bottom chamber contained 150 µL of migration media with chemokine and peptide. Cells were migrated at 37 °C in 5% CO2 for 4 h. J:CXCR1 cell migration was performed exactly as above using a 3-µm Transwell insert (3385, Corning). Activated T-cell migration. Briefly, 100000 cells/well were added to the top chamber of a 3-µm Transwell insert (3385, Corning) in 50 µL of migration media (HBSS (14025-092, Life Technologies), 0.1% protease free bovine serum albumin (A7030, Sigma), 0.05% DMSO (D4540, Sigma)). The bottom chamber contained 150 µL of migration media with chemokine and peptide. Cells were migrated at 37 °C in 5% CO2 for 2 h. Buffy coat migration. Briefly, a mixture of all cell types at 100000 cells/well were added to the top chamber of a 3-µm Transwell insert (3385, Corning) in 50 µL of migration media (HBSS (14025-092, Life Technologies), 0.1% protease free bovine serum albumin (A7030, Sigma), 0.05% DMSO (D4540, Sigma). The bottom chamber contained 150 µL of migration media with chemokine and peptide. Cells were migrated at 37 °C in 5% CO2 for 2 h. Analysis of cell migration. The migration plate was shaken at 850 RPM for 10 min, and media from bottom plate transferred to a round-bottomed 96 well plate (353910, Falcon). Cells were counted by flow cytometry as described above. Experiments were performed at chemokine EC80 for individual chemotaxis experiments and at EC50 for the pooled chemokine experiments, with three technical replicates, and at least three biological replicates. Statistical significance of differences between control and test groups was evaluated using a two-sided Dunnett’s test with multiple testing correction. Chemokine EC80 or chemokine pool EC50 values were as determined by performing a chemokine dose-response against the cell type and fitting the dose-response curve with a 3-parameter log-logistic model, where the maximal response is fixed at 100% response. […] IC50 was determined by performing inhibitor dose-response experiments and fitting the dose-response curve with a 3-parameter log-logistic model, fixing the bottom of the curve to zero. […] For summary statistics and comparisons, pEC50, pEC80 and pIC50 were calculated as the negative log10 of EC50, EC80 or IC50 expressed in moles/litre.
Sample size and estimated effect sizes were not formally calculated for cell-based or phage-display experiments and no randomization was performed. […]

Sequence	migrated cell count over all chemokines studied, compared to HD2 (meta-analysis)
EEDDWTAYAPLTCYFT [HD2Y5W, HD2 point mutant]	significant improvement over HD2
EEDDYWAYAPLTCYFT [HD2T6W, HD2 point mutant]	significant improvement over HD2
